# US20090291883A1, “COMBINATION OF AN IMMUNOSUPPRESSIVE AGENT AND NONSTEROIDAL ANTI -INFLAMMATORY DRUGS TO TREAT DISEASE” (BOSTON MEDICAL CENTER CORPORATION, priority 2006, published 2009)
# Key:
# [1] = test system: colorectal cancer; details: chronic aspirin use; cited from earlier work
# [2] = test system: sporadic colonic polyps; details: cited from earlier work; for regression of adenomatous polyps, small pilot study: sporadic colonic polyps
# [3] = test system: villous adenomas of the cecum; details: 30 mg weekly, for up to 20 months; cited from earlier work
# [4] = test system: MC-26 colorectal cancer cells; experiment: Subcutaneous MC-26 colorectal cancer tumor growth in BALB/c mice; format: in vivo
# Experimental: (§1) A second control group included mice that were not injected with tumor cells and received no treatment.
# (§2) Skin from donor B6 black mice was transplanted to recipient white BALB/c mice. […] To determine the effects of these agents on secondary tumor development, BALB/c mice were also injected subcutaneously with MC-26 colorectal cancer cells and were treated for 22 days with the above regimens. A second control group included mice that were not injected with tumor cells and received no treatment.
# (§3) The inventors subcutaneously injected 2×10^4 MC-26 cells (mouse colorectal adenocarcinoma cell line) into the flanks of 6-8 week old BALB/c mice. Tumor volume was measured at regular intervals during a period of 22 days. […] Skin xenografts from donor black B6 mice were simultaneously transplanted to the backs of the mice.
# [5] = Body weight change of MC-26 tumor-bearing BALB/c mice, day 0 to day 22; format: in vivo; details: compared with mice not injected with tumor cells and untreated
# Experimental: as §1, §2
# [6] = test system: skin graft from donor B6 black mice; experiment: Skin graft from donor B6 black mice transplanted to recipient BALB/c mice: graft rejection/survival; format: in vivo
# Experimental: as §2, §3
# [7] = test system: HT-29 colon adenocarcinoma cell line; details: following sulindac administration; cited from earlier work
# [8] = given orally as a tablet; cited from earlier work
# [9] = test system: colonic polyps; details: daily dose of 300 mg, taken systemically; cited from earlier work
# [10] = test system: flat colorectal mucosa; details: after treatment with sulindac, FAP subjects; cited from earlier work
smiles,measurement,setting,value
CC(=O)Oc1ccccc1C(=O)O [aspirin],reduction in the incidence of colorectal cancer,[1],50-70%
CN1C(C(=O)Nc2ccccn2)=C(O)c2ccccc2S1(=O)=O [piroxicam],"regression of adenomatous polyps, small pilot study",[2],no similar regression
same,regression of pre-malignant adenomas,[3],dramatic and sustained regression
CS(=O)(=O)c1ccc(C2=C(c3ccccc3)C(=O)OC2)cc1 [rofecoxib],tumor growth / tumor size (FIG. 1),"[4]; Example 1, treated for 22 days, rofecoxib chow equivalent to a human dose of 25 mg per day",significantly smaller
same,tumor growth / tumor size (FIG. 4),"[4]; Example 2, treated for 22 days, cyclosporine 20 mg/kg, rofecoxib chow equivalent to a human dose of 25 mg per day",significantly smaller
same,tumor volume (TV),"[4]; Example 3, 2×10^4 MC-26 cells s.c. in flank, 22 days, rofecoxib chow 0.01%, cyclosporine 20 mg/kg, skin graft transplanted simultaneously, control chow 920.81±511.10",394.75±273.37 mm^3
same,tumor volume / tumor growth compared with control chow,"[4]; Example 3, 22 days",markedly reduced
same,growth and body weight gain (FIG. 2),"[5]; Example 1, day 0 to day 22",continued to grow and gained weight similarly to the control group
same,growth and body weight gain,"[5]; Example 2, 22 days",continued to grow and gained weight similarly to the control group
same,skin graft rejection (FIG. 3),"[6]; Example 2, 22 days, cyclosporine 20 mg/kg, rofecoxib chow equivalent to a human dose of 25 mg per day",rejected the skin graft
same,skin graft survival at day 15,"[6]; Example 3, day 15, cyclosporine 20 mg/kg, rofecoxib chow 0.01%, control group 0%",0%
same,time by which the skin graft had failed,"[6]; Example 3, rofecoxib chow 0.01%",≤ 11 days
CC1=C(CC(=O)O)c2cc(F)ccc2/C1=C\c1ccc([S+](C)[O-])cc1 (stereo not drawn) [sulindac],"regression / progression of sporadic colorectal adenomas, multicenter study","[2]; 300 mg daily or 150 mg daily for one year, regardless of dose, nearly 100 subjects",induced regressions and prevented the progression
same,"regression of adenomatous polyps, small pilot study",[2],no similar regression
same,apoptosis in HT-29 cells,[7],induction of apoptosis
same,time to peak plasma concentration after dosing,[8],about two
same,number and size of colonic polyps,[9],significantly decreased
same,colonic mucosal apoptosis,[10],increased levels
